Reference: patent US20240148745A1, “COMPOUNDS FOR USE IN PROGRESSIVE MULTIPLE SCLEROSIS” (FONDAZIONE CENTRO SAN RAFFAELE, priority 2021, published 2024)

Columns and labels:
[1] = tested on: iPSC-derived neurons (DIV45); conditions: human
Method: This protocol was modified from Yuchen Qi et al.^32 First, neural progenitors (NPCs) were generated from hiPSCs by dual-SMAD inhibition. Shortly, at day 0 iPSC colonies (confluent at 70-80%) were washed with PBS Dulbecco's w/o Calcium w/o Magnesium (Euroclone) and hiPSCs' maintenance medium (mTeSR™, StemCell Technologies) was replaced with neural induction medium composed by DMEM/F12 plus N2 medium (1×), B27 without RA supplement (0.5×) (Life Technology), added with SB431542 (10 μM) and LDN (500 nM). This medium was kept until day 4 (“induction”). At day 4, cells were splitted (1:3) with the same induction medium using Accutase®/Accumax™ (StemCell Technologies) dissociated solution. Entire medium was replaced daily up to days 14-16 until rosette formation was observed (“patterning”). At days 14-16, cells were detached by Accutase®/Accumax™ and re-plated on polyornitine/laminin/fibronectin coated MW96 or MW24 plates for terminal differentiation in Neurobasal medium supplemented with B27 (0.5×), BDNF (20 ng/ml), dbcAMP (500 μM), ascorbic acid (200 μM), PD0325901 (1 μM), SU5402 (5 μM), CHIR (3 μM), human recombinant insulin (5 μg/ml), supplemented with RI (Rock inhibitor) (1:3000) to reduce dissociation induced apoptosis. The half of differentiation medium was changed every 3-4 days, supplemented with 1 μg/ml laminin and DAPT (1-2 μM) until terminal maturation of neuronal population (MAP2+ cells). Cultures were characterized by immunocytochemistry and qRT-PCR and neuroprotective experiments were performed on days 30-40 of differentiation.
Evaluation of cytotoxicity of 160 selected compounds on iPSC-derived neurons (DIV45).

[2] = tested on: primary human A2B5+ pre-oligodendrocytes; test: Ensheathment by primary human A2B5+ oligodendrocyte lineage cells; type: cell-based; conditions: for percentage of ensheathed O4+ cells: human adult A2B5+ cells, 14 days
Method: FIG. 49. […] The experiments were conducted using primary human oligodendrocyte lineage cells obtained from surgically derived tissue specimens. Specimens were derived either from adults or pediatric age groups. […] Percentages of ensheathed O4+ cells were calculated by the total ensheathed O4+ cells out of total O4+ cells. HA-human adult, HP-human pediatric. *p<0.05.

[3] = tested on: human embryonic and fetal neural precursors (hufNPCs); test: hufNPC differentiation towards TUJ1+ neurons; type: cell-based; conditions: 1 μM, 7 days
Method: First, fresh human fetal brain tissues were mechanically dissociated, followed by enzymatic dissociation with Trypsin (LONZA (BE17-161E) 1:5) in growth medium for 5-10 min at 37° C., 5% O2 e 5% CO2, then washed with 10% Australian FBS in fresh medium and centrifuged 15 min at 200 g. Cells were plated in T25 flask in Neural stem cell growth medium (NeuroCult-XF Basal Medium (cat. #05760)+ NeuroCult-XF Proliferation supplement (cat. #05763) (for Human Neural Stem Cells) […] TECHNOLOGIES+human recombinant carrier-free EGF (cat. #1325 9510 00) and bFGF (cat. #1370 9505 00) (Provitro) at final concentration of 20 ng/ml) at 37° C., 5% O2 e 5% CO2. After 15-25 days, enzymatic (Accumax®, StarFish cat. #GMP-102470) dissociation of neurospheres or subconfluent adherent cells was performed and cells were re-plated at density (25000 cells/cm2) in NGM. […] Pro-differentiating properties of 160 compounds were evaluated by co-incubating freshly seeded in 96 well plate hufNPCs with 1 μM compounds for 7 days (each compound was tested in triplicate). […] After one week, cells were fixed and analyzed via immunocytochemistry. […] 15 images per well were acquired and analyzed by CellProfiler. Number of TUJ1+/DAPI cells was counted and compared to DMSO.
160 selected non-toxic compounds pro-differentiating properties were evaluated on human embryonic and fetal neural precursors (hufNPCs). […]

S1R (Sigma 1 Receptor) = target: T1, S1R (Sigma 1 Receptor) (Rattus norvegicus, UniProt Q9R0C9); test: CETSA target engagement in CG-4 cell lysates; type: binding; conditions: 100 μM, 15 minutes, 52-77° C.
T1 construct: endogenous in cells; host or cells: CG-4 oligodendrocyte cell line (rat), lysate
T1 sequence (Q9R0C9 whole entry): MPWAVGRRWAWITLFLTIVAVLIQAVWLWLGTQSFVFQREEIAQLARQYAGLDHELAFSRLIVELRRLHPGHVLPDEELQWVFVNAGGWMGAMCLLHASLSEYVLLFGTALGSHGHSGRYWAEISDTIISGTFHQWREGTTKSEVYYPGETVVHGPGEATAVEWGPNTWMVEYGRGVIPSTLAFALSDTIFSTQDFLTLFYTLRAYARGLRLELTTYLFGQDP
Method: FIG. 32. […] Samples were heated at increasing temperatures (52-77° C.) and the soluble fractions were subjected to western blot. […] The immunoblot is representative of 4 biological replicates. Band quantification was performed by ImageJ software and the signal intensity of the thermostable protein was normalized to the respective intensity at 52° C. Protein amount at the other temperatures is represented as % of protein at 52° C. Data are means±the standard error of biological quadruplicates measurements and their statistical significance was evaluated by the Student's t-test (*** p<0.001; **p<0.01; *p<0.05).

[4] = tested on: LPC-induced demyelinated lesions of the mouse spinal cord; test: LPC model of focal demyelination of the mouse spinal cord; type: in vivo
[5] = tested on: LPC lesions of MBP-deficient shiverer spinal cords transplanted with human iPSC-derived oligodendrocytes; test: Remyelination in LPC lesions of shiverer spinal cords grafted with hiOLs; type: in vivo, mouse; conditions: gavage during 8 or 10 wkpg
Text: FIG. 48. In vivo results of Bavisant treatment on remyelination in LPC lesions of MBP-deficient shiverer spinal cords transplanted with human iPSC-derived oligodendrocytes. […] Exogenous myelin is detected by MBP and endogenous myelin by MOG.

[6] = 30 mg/kg daily oral gavage, 14 dpi

CC(=O)N1CCN([C@H]2CCN(C(=O)N(C)[C@H](C)c3cc(C(F)(F)F)cc(C(F)(F)F)c3)[C@@H](c3ccc(F)cc3C)C2)CC1 [Casopitant]
viability compared to DMSO [1]: 65-80% | toxicity on dissociated cultures [2]: No evidence of toxicity | percentage of ensheathed O4+ cells [2]: promote ensheathment of adult brain derived A2B5+ cells

O=C(NOC[C@H](O)CO)c1ccc(F)c(F)c1Nc1ccc(I)cc1F [PD-0325901]
viability compared to DMSO [1]: 65-80%

CC1(C)CCC(C)(C)c2cc(NC(=O)c3ccc(C(=O)O)cc3)ccc21 [Tamibarotene]
neuronal differentiation (TUJ1+/DAPI cells vs DMSO) [3]: significantly promoted neuronal differentiation compared to DMSO and heparin

O=C(c1ccc(CN2CCOCC2)cc1)N1CCN(C2CC2)CC1 [Bavisant]
thermostability of S1R (CETSA, western blot) (S1R (Sigma 1 Receptor)): thermostability of S1R in the presence of Bavisant | density of Olig2+CC1+ differentiated oligodendrocytes in LPC lesions ([4]; 30 mg/kg daily oral gavage, 5 to 14 dpi, readout 14 dpi): significantly increased the density of mature oligodendrocytes | % of remyelinated axons in the lesion [4, 6]: significantly increased the number of remyelinated axons | axonal density in LPC lesions [4, 6]: not changes | G-ratio ([4]; control vs treated, p<0.0001): enhances remyelination in vivo | remyelination potential of grafted hiOLs (MBP) [5]: has the tendency to promote the remyelination potential of hiOLs | toxicity on dissociated cultures [2]: No evidence of toxicity | percentage of ensheathed O4+ cells [2]: promote ensheathment of adult brain derived A2B5+ cells
